Patent publication US20120101134A1, “5-MEMBERED HETEROARYL DERIVATIVES USED AS SPHINGOSINE 1-PHOSPHATE RECEPTOR AGONISTS” (GLAXO GROUP LIMITED, priority 2009, published 2012)
pEC50: −log10 of the molar value.

What was measured:
[1] = biological target: T1, human Endothelial Differentiation Gene 1 (EDG1) (Homo sapiens, UniProt P21453); assay: S1P1 Tango assay - 96 well format; type: cell-based; details: EDG1-bla/U2OS cells, agonist
T1 construct: TEV protease site; Gal4-VP16 transcription factor; expressed in transfected cells; host or cells: EDG1-bla/U2OS (Tango GPCR-bla U2OS parental cell line)
T1 sequence (P21453 whole entry, the tested form may be a part): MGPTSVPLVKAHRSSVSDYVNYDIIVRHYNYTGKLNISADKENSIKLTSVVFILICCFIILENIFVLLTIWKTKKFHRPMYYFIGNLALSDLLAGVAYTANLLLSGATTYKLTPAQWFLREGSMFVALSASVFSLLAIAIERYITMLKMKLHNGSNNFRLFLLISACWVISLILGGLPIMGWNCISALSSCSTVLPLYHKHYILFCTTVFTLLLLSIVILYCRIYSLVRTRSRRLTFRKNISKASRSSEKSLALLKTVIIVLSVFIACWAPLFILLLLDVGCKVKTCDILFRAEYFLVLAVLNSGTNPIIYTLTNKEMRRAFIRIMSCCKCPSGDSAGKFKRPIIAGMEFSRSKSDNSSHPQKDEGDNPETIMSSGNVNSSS
Method: S1P1 Tango assay—96 Well Format
Recombinant EDG1-bla/U2OS cells (contain the human Endothelial Differentiation Gene 1 (EDG1) linked to a TEV protease site and a Gal4-VP16 transcription factor stably integrated into the Tango GPCR-bla U2OS parental cell line) were suspended in assay medium (Invitrogen Freestyle Expression Medium) at a density of 312, 500 cells/ml. Add 100 μl/well of the assay medium to the cell-free control wells (column 12) and 100 μl/well of the cell suspension to the test compound wells (row 2-8, column 1-10), the unstimulated control wells (DMSO) (column 11), and stimulated control wells (SIP) (row 1, column 1-10) in a Corning black-well, clear bottom 96-well plate. Cells were incubated at 37° C., 5% CO2 for 44-48 h.
Add 25 μl of 5× stock solution of test compounds in assay medium with 0.5% DMSO to the test compound wells, 25 μl of 5× stock solution of agonist (S1P) in assay medium with 0.5% DMSO to the stimulated compound wells, and 25 μl of 5× stock solution of 0.5% DMSO in assay medium to the unstimulated control and cell-free control wells.
After incubation at 37° C., 5% CO2 for 5 h, 25 μl of 6× substrate mixture (6 μl Solution A (1 mg LiveBLAzer™-FRET B/G substrate (CCF4-AM) in 912 μl DMSO) plus 60 μl Solution B plus 934 μl Solution C) was added to each well and incubate at room temperature for 2 h in dark. The plate was finally read on EnVision for two emission channels (460 nm and 530 nm).
All test compounds were dissolved in DMSO at a concentration of 10 mM and were prepared in 100% DMSO using a 1 in 5 dilution step to provide 10 point dose response curves. The dilutions were transferred to the assay plates ensuring that the DMSO concentration was constant across the plate for all assays.
Calculate the blue/green emission ratio (460 nm/530 nm) for each well, by dividing the background-subtracted Blue emission values by the background-subtracted Green emission values. The dose response curve is based on sigmoidal dose-response model. […]

[2] = biological target: T1, human Endothelial Differentiation Gene 1 (EDG1); assay: S1P1 Tango assay - 384 well format; type: cell-based; details: EDG1-bla/U2OS cells, agonist
Method: S1P1 Tango assay—384 Well Format
Recombinant EDG1-bla/U2OS cells (contain the human Endothelial Differentiation Gene 1 (EDG1) linked to a TEV protease site and a Gal4-VP16 transcription factor stably integrated into the Tango GPCR-bla U2OS parental cell line) were harvested from growth medium and passaged into assay medium (Invitrogen Freestyle Expression Medium). The cells were starved for 24 hours at 37° C., 5% CO2, harvested and resuspended in assay medium at a density of ˜200,000 cells/ml. All test compounds were dissolved in DMSO at a concentration of 10 mM and were prepared in 100% DMSO to provide 10 point dose response curves. Test compounds prepared by Bravo (Velocity11) were added to wells in columns 2-11 and 13-22; DMSO was added to wells in columns 12 and 23 as unstimulated controls and assay medium was added to wells in columns 1 and 24 as cell-free controls. An S1P1 agonist was added to wells in row 2, columns 2-11 as stimulated controls and test compounds were added to wells in row 2, columns 13-22 and rows 3-15, columns 2-11/13-22 (row 1 and 16 were empty and not used). Compounds in solution were added to the assay plate (Greiner 781090) using an Echo (Labcyte) dose-response program (50 nl/well). The unstimulated and cell-free controls were loaded with 50 nl/well pure DMSO to ensure that the DMSO concentration was constant across the plate for all assays.
50 μl of the cell suspension was added to each well in columns 2-23 of the plate (˜10,000 cells per well). 50 μl of assay medium was added to each well in the cell-free controls (columns 1 and 24). The cells were incubated overnight at 37° C./5% CO2.
10 μl of 6× substrate mixture (LiveBLAzer™-FRET B/G substrate (CCF4-AM) Cat #K1096 from Invitrogen, Inc.) was added to each well using Bravo and the plates incubated at room temperature for 2 h in the dark. The plate was finally read on EnVision using one excitation channel (409 nm) and two emission channels (460 nm and 530 nm).
The blue/green emission ratio (460 nm/530 nm) was calculated for each well, by dividing the background-subtracted Blue emission values by the background-subtracted Green emission values. The dose response curve is based on sigmoidal dose-response model. All ratio data was normalized based upon the maximum emission ratio of positive control and minimum emission ratio of negative control (DMSO) on each plate. The intrinsic activity (IA) of each compound would be the normalized percentage of its maximum response after curve fitting.

Structure (SMILES)	pEC50 [1]	pEC50 [2]
CC(C)Oc1ccc(-c2nc(-c3ccnc(CCCC(=O)O)c3)no2)cc1C#N [Example 21, 4-[4-(5-{3-cyano-4-[(1-methylethyl)oxy]phenyl}-1,2,4-oxadiazol-3-yl)-2-pyridinyl]butanoic acid]	< 6.00	–
Cc1c(C[C@@H](C)C(=O)O)cccc1-c1noc(-c2cnc(OC(C)C)c(Cl)c2)n1 [Example 3, (2R)-3-[3-(5-{5-chloro-6-[(1-methylethyl)oxy]-3-pyridinyl}-1,2,4-oxadiazol-3-yl)-2-methylphenyl]-2-methylpropanoic acid]	< 6.00	–
Cc1c(CCCC(=O)O)cccc1-c1noc(-c2cnc(OC(C)C)c(Cl)c2)n1 [Example 4, 4-[3-(5-{5-chloro-6-[(1-methylethyl)oxy]-3-pyridinyl}-1,2,4-oxadiazol-3-yl)-2-methylphenyl]butanoic acid]	< 6.00	–
CCc1c(CCN(C)CC(=O)O)cccc1-c1cnc(-c2ccc(OC(C)C)c(C#N)c2)s1 [Example 53, N-{2-[3-(2-{3-cyano-4-[(1-methylethyl)oxy]phenyl}-1,3-thiazol-5-yl)-2-ethylphenyl]ethyl}-N-methylglycine]	–	≥ 8.00
CCc1c(CCN(C)CCC(=O)O)cccc1-c1cnc(-c2ccc(OC(C)C)c(C#N)c2)s1 [Example 59, N-{2-[3-(2-{3-cyano-4-[(1-methylethyl)oxy]phenyl}-1,3-thiazol-5-yl)-2-ethylphenyl]ethyl}-N-methyl-b-alanine]	–	≥ 9.00
COc1c(CCCC(=O)O)cc(F)cc1-c1noc(-c2ccc(OC(C)C)c(C#N)c2)n1 [Example 31, 4-[3-(5-{3-cyano-4-[(1-methylethyl)oxy]phenyl}-1,2,4-oxadiazol-3-yl)-5-fluoro-2-(methyloxy)phenyl]butanoic acid]	–	≥ 9.00
CCc1c(CCCC(=O)O)cccc1-c1cnc(-c2ccc(OC(C)C)c(Cl)c2)s1 [Example 52, 4-[3-(2-{3-chloro-4-[(1-methylethyl)oxy]phenyl}-1,3-thiazol-5-yl)-2-ethylphenyl]butanoic acid]	–	≥ 8.00
COc1c(CCC(=O)O)cc(F)cc1-c1noc(-c2cnc(OC(C)C)c(Cl)c2)n1 [Example 33, 3-[3-(5-{5-chloro-6-[(1-methylethyl)oxy]-3-pyridinyl}-1,2,4-oxadiazol-3-yl)-5-fluoro-2-(methyloxy)phenyl]propanoic acid]	–	≥ 7.00
CCc1c(OCCCC(=O)O)cccc1-c1noc(-c2ccc(OC(C)C)c(C#N)c2)n1 [Example 38, 4-{[3-(5-{3-cyano-4-[(1-methylethyl)oxy]phenyl}-1,2,4-oxadiazol-3-yl)-2-ethylphenyl]oxy}butanoic acid]	–	≥ 8.00
CCCc1c(CCCC(=O)O)cccc1-c1noc(-c2ccc(OC(C)C)c(C#N)c2)n1 [Example 37, 4-[3-(5-{3-cyano-4-[(1-methylethyl)oxy]phenyl}-1,2,4-oxadiazol-3-yl)-2-propylphenyl]butanoic acid]	–	≥ 8.00
CC(C)Oc1ccc(-c2nc(-c3ccc(F)c(CCCC(=O)O)c3)no2)cc1C#N [Example 23, 4-[5-(5-{3-cyano-4-[(1-methylethyl)oxy]phenyl}-1,2,4-oxadiazol-3-yl)-2-fluorophenyl]butanoic acid]	–	≥ 6.00
